Measured values taken from the NIST ThermoML archive (doi:10.1021/acs.jced.8b00008).
± gives the expanded uncertainty stated by the source.

Experiment: xn = mol fraction of the nth substance listed
Details: for surface tension liquid-gas: 293 K, Pendant drop shape; for viscosity / speed of sound / mass density: 102 kPa, Liquid; for viscosity: Concentric cylinders viscometry; for speed of sound: Single path-length method; for mass density: Vibrating tube method

CC1CCCCC1 [methylcyclohexane] + CCCCCCCCCCCC
Details | surface tension liquid-gas [mN/m]
x1 = 0.1 | 24.86 ± 0.32
x1 = 0.2001 | 24.84 ± 0.32
x1 = 0.3 | 24.76 ± 0.32
x1 = 0.4001 | 24.73 ± 0.32
x1 = 0.5 | 24.5 ± 0.32
x1 = 0.5999 | 24.34 ± 0.32
x1 = 0.7 | 24.25 ± 0.32
x1 = 0.7999 | 24.11 ± 0.31
x1 = 0.9 | 23.95 ± 0.31

Details | mass density [kg/m3] | speed of sound [m/s] | viscosity [mPa·s]
293.15 K, x1 = 0.1 | 749.76 ± 0.7 | 1293.1 ± 0.6 | 1.41 ± 0.01
293.15 K, x1 = 0.2001 | 750.92 ± 0.7 | 1288.3 ± 0.6 | 1.34 ± 0.01
293.15 K, x1 = 0.3 | 752.24 ± 0.7 | 1283.1 ± 0.6 | 1.26 ± 0.01
293.15 K, x1 = 0.4001 | 753.73 ± 0.7 | 1277.5 ± 0.6 | 1.18 ± 0.01
293.15 K, x1 = 0.5 | 755.42 ± 0.7 | 1271.7 ± 0.6 | 1.11 ± 0.01
293.15 K, x1 = 0.5999 | 757.37 ± 0.7 | 1265.3 ± 0.6 | 1.03 ± 0.01
293.15 K, x1 = 0.7 | 759.54 ± 0.7 | 1258.9 ± 0.5 | 0.95 ± 0.012
293.15 K, x1 = 0.7999 | 762.21 ± 0.7 | 1251.8 ± 0.5 | 0.875 ± 0.012
293.15 K, x1 = 0.9 | 765.42 ± 0.7 | 1244.3 ± 0.5 | 0.798 ± 0.012
298.15 K, x1 = 0.1 | 746.11 ± 0.7 | 1273.6 ± 0.6 | 1.29 ± 0.01
298.15 K, x1 = 0.2001 | 747.24 ± 0.7 | 1268.7 ± 0.6 | 1.23 ± 0.01
298.15 K, x1 = 0.3 | 748.53 ± 0.7 | 1263.4 ± 0.6 | 1.16 ± 0.01
298.15 K, x1 = 0.4001 | 749.97 ± 0.7 | 1257.7 ± 0.6 | 1.09 ± 0.01
298.15 K, x1 = 0.5 | 751.63 ± 0.7 | 1251.7 ± 0.6 | 1.04 ± 0.01
298.15 K, x1 = 0.5999 | 753.5 ± 0.7 | 1245 ± 0.6 | 0.968 ± 0.012
298.15 K, x1 = 0.7 | 755.59 ± 0.7 | 1238.2 ± 0.5 | 0.898 ± 0.012
298.15 K, x1 = 0.7999 | 758.17 ± 0.7 | 1230.8 ± 0.5 | 0.828 ± 0.012
298.15 K, x1 = 0.9 | 761.26 ± 0.7 | 1222.7 ± 0.5 | 0.755 ± 0.012
303.15 K, x1 = 0.1 | 742.46 ± 0.7 | 1254.3 ± 0.6 | 1.2 ± 0.01
303.15 K, x1 = 0.2001 | 743.56 ± 0.7 | 1249.3 ± 0.6 | 1.14 ± 0.01
303.15 K, x1 = 0.3 | 744.81 ± 0.7 | 1243.9 ± 0.6 | 1.08 ± 0.01
303.15 K, x1 = 0.4001 | 746.21 ± 0.7 | 1238 ± 0.6 | 1.02 ± 0.01
303.15 K, x1 = 0.5 | 747.8 ± 0.7 | 1231.9 ± 0.6 | 0.959 ± 0.012
303.15 K, x1 = 0.5999 | 749.62 ± 0.7 | 1224.8 ± 0.6 | 0.889 ± 0.012
303.15 K, x1 = 0.7 | 751.64 ± 0.7 | 1217.8 ± 0.5 | 0.826 ± 0.012
303.15 K, x1 = 0.7999 | 754.12 ± 0.7 | 1209.9 ± 0.6 | 0.762 ± 0.012
303.15 K, x1 = 0.9 | 757.08 ± 0.7 | 1201.4 ± 0.5 | 0.696 ± 0.011
313.15 K, x1 = 0.1 | 735.13 ± 0.7 | 1216.3 ± 0.6 | 1.01 ± 0.01
313.15 K, x1 = 0.2001 | 736.17 ± 0.7 | 1211.1 ± 0.6 | 0.965 ± 0.012
313.15 K, x1 = 0.3 | 737.34 ± 0.7 | 1205.4 ± 0.6 | 0.916 ± 0.012
313.15 K, x1 = 0.4001 | 738.65 ± 0.7 | 1199.2 ± 0.6 | 0.871 ± 0.012
313.15 K, x1 = 0.5 | 740.13 ± 0.7 | 1192.9 ± 0.7 | 0.858 ± 0.012
313.15 K, x1 = 0.5999 | 741.83 ± 0.7 | 1185.2 ± 0.6 | 0.8 ± 0.012
313.15 K, x1 = 0.7 | 743.69 ± 0.7 | 1177.6 ± 0.5 | 0.744 ± 0.012
313.15 K, x1 = 0.7999 | 745.98 ± 0.7 | 1169 ± 0.7 | 0.689 ± 0.011
313.15 K, x1 = 0.9 | 748.69 ± 0.7 | 1159.5 ± 0.5 | 0.63 ± 0.011
323.15 K, x1 = 0.1 | 727.76 ± 0.7 | 1178.9 ± 0.6 | 0.892 ± 0.012
323.15 K, x1 = 0.2001 | 728.74 ± 0.7 | 1173.5 ± 0.6 | 0.852 ± 0.012
323.15 K, x1 = 0.3 | 729.83 ± 0.7 | 1167.6 ± 0.6 | 0.813 ± 0.012
323.15 K, x1 = 0.4001 | 731.05 ± 0.7 | 1161.1 ± 0.6 | 0.774 ± 0.012
323.15 K, x1 = 0.5 | 732.41 ± 0.7 | 1154.4 ± 0.6 | 0.732 ± 0.012
323.15 K, x1 = 0.5999 | 733.97 ± 0.7 | 1146.3 ± 0.6 | 0.681 ± 0.011
323.15 K, x1 = 0.7 | 735.69 ± 0.7 | 1138.2 ± 0.5 | 0.634 ± 0.011
323.15 K, x1 = 0.7999 | 737.77 ± 0.7 | 1128.8 ± 0.8 | 0.589 ± 0.011
323.15 K, x1 = 0.9 | 740.22 ± 0.7 | 1118.3 ± 0.5 | 0.538 ± 0.011
333.15 K, x1 = 0.1 | 720.35 ± 0.7 | 1142.5 ± 0.6 | 0.783 ± 0.012
333.15 K, x1 = 0.2001 | 721.26 ± 0.7 | 1137 ± 0.6 | 0.752 ± 0.012
333.15 K, x1 = 0.3 | 722.26 ± 0.7 | 1130.7 ± 0.6 | 0.716 ± 0.012
333.15 K, x1 = 0.4001 | 723.38 ± 0.7 | 1124 ± 0.6 | 0.692 ± 0.021
333.15 K, x1 = 0.5 | 724.63 ± 0.7 | 1116.6 ± 0.6 | 0.641 ± 0.011
333.15 K, x1 = 0.5999 | 726.06 ± 0.7 | 1108.3 ± 0.6 | 0.606 ± 0.011
333.15 K, x1 = 0.7 | 727.61 ± 0.7 | 1099.9 ± 0.5 | 0.564 ± 0.011
333.15 K, x1 = 0.7999 | 729.48 ± 0.7 | 1089.6 ± 1 | 0.527 ± 0.011
333.15 K, x1 = 0.9 | 731.68 ± 0.7 | 1078.2 ± 0.5 | 0.48 ± 0.011
